Experimental data reported in patent publication US12528774B2, “Thiosemicarbazone compounds and uses thereof” (The Regents of the University of California, priority 2019, dated 2026).

System: MIAPACA2 cells
Test: Mito Stress Test (oxygen consumption rate, Seahorse)
Assay type: cell-based, human
Settings: HCT13 25 nM + Cu(II) 20 μM, 24 h
Description: FIG. 3A: Mito Stress Test of MIAPACA2 PDAC cells treated with HCT13 (25 nM)+Cu(II) (20 μM) for 24h. FIG. 3B: electron flow assay in isolated mitochondria treated with HCT-13 (100 nM)+Cu(II) (20 μM) for 1h. FIG. 3C: viability of 143 BTK parental (wild type, WT) and ρ0 cells after 48h of the indicated HCT13 concentration+Cu(II) (20 μM) treatment, assessed with Trypan Blue Staining. FIG. 3D: 48h cell cycle histogram and plots of S-phase arrest plots in 143 BTK WT and 143 BTK ρ0 cells at 24, 48 and 72h following treatment with indicated concentrations of HCT13+Cu(II)(20 μM). (mean±SD, n=2, one-way ANOVA corrected for multiple comparisons by Bonferroni adjustment, * P<0.05; ** P<0.01; *** P<0.001). […]
Mito Stress Test and Electron Flow Assay: All oxygen consumption rate (OCR) was measured using a XF24 Analyzer (Agilent) and normalized per μg protein. […] OCR was measured before (total respiration) and after the sequential injection of 1 μM oligomycin (complex V inhibitor), 0.75 μM FCCP (uncoupler), and 1 μM of rotenone and myxothiazol (complex I and III inhibitors, respectively), as described previously (1). Mitochondrial respiration was calculated by subtracting the non-mitochondrial respiration left after rotenone and myxothiazol injection. […] OCR was measured before and after the sequential injections described in the previous paragraph. […]

CN(C)C(=S)N/N=C/c1nccc2cc(F)ccc12 (mixture of isomers) [HCT13, (E)-2-((6-Fluoroisoquinolin-1-yl)methylene)-N,N-dimethylhydrazine-1-carbothioamide and (Z)-2-((6-Fluoroisoquinolin-1-yl)methylene)-N,N-dimethylhydrazine-1-carbothioamide]
basal respiration and maximum respiratory capacity (OCR): significantly reduced | basal respiration and maximum respiratory capacity (OCR) (listed as HCT-13): decreased significantly
